Measurements from patent US9108958B2, “Selective CCR2 antagonists” (Boehringer Ingelheim International GmbH, priority 2011, dated 2015).

Legend:
CCR2 = target: T1, CCR2 (Homo sapiens, UniProt P41597); assay: CCR2 receptor membrane binding assay ([125I]MCP-1, THP-1 cell membranes, SPA beads); conditions: THP-1 membranes, [125I]MCP-1, bound radioactivity after 8 h; read-out: hKi [nM](CCR2)
T1 construct: Membranes were prepared from THP-1 cells; endogenous in cells; host or cells: THP-1 (human acute monocytic leukaemia cells), membrane preparation
T1 sequence (P41597 1-360 isoform P41597-2): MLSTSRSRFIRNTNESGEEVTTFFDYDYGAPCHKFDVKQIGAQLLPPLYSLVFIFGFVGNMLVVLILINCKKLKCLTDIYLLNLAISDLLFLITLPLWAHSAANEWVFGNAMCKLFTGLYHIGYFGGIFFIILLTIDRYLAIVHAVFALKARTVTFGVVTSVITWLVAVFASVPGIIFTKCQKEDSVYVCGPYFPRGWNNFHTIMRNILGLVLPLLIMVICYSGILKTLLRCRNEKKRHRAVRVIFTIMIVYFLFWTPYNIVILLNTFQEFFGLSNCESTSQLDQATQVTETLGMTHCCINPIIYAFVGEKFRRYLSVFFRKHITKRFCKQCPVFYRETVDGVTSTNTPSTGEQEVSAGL
Experimental: The above exemplary substances have been tested for binding to CCR2 using a binding assay as outlined herein below:
THP-1 cells (human acute monocytic leukaemia cells) were cultured under standardized conditions at 37° C. and 5% CO2 in a humidified incubator. THP-1 cells were cultivated in RPMI 1640 medium (Gibco 21875) containing 1% MEM-NEAA (Gibso 11140) 2 mM L-glutamine, 1.5 g/L sodium bicarbonate, 4.5 g/L glucose, 10 mM HEPES and 1.0 mM sodium pyruvate, 90%; 10% fetal calf serum (FCS Gibco 10500-064).
Membranes were prepared from THP-1 cells. THP-1 cells were centrifuged at 300×g at 4° C. for 10 min. The cell pellet was resuspendet in Phosphate Buffer Saline (PBS, including 10 μM Pefabloc and a protease inhibitor mix ‘complete’, Boehringer Mannheim (1 tablet/50 ml)), to a concentration of […]. The membrane preparation was performed by disrupting the cells by nitrogen […] (at 50 bar, for 1 h) in a “Nitrogen Bombe” (Parr Instrument). Cell debris was removed by centrifugation (800×g at 4° C., 1 min) The supernatant was centrifuged at 80000×g, 4° C. for 30 min to sediment the cell membranes. Usually 50 mg of protein (Bradford assay) were yielded from 1×10E9 cells. The membranes were resuspendet in 25 mM HEPES, 25 mM MgCl2, 1 mM CaCl2, 10% Glycerine for storage in aliquots at −80° C. in 25 mM HEPES, 25 mM MgCl2, 1 mM CaCl2, 10% Glycerine and stored at −80° C.
(§1) Receptor Membrane Binding Assay:
Perkin Elmer NEX 332 Jod^125 MCP-1, Stock: 2200 Ci/mmol solved in 2000 μl assay buffer, stored at −20° C. THP-1 membrane were adjusted with 25 mM HEPES, pH 7.2; 5 mM MgCl2; 0.5 mM CaCl2; 0.2% BSA assay buffer to a concentration of 2.5 μg/15 μl. Amersham Biosciences PVT-WGA Beads (RPNQ0001) were adjusted with assay buffer to a concentration of 0.24 mg/30 μl. For preparation of the membrane-bead-suspension membranes and beads were incubated for 30 min at RT under rotation (60 rpm) with a ratio of 1:2. Test compounds dissolved in 100% DMSO to a concentration of 10 mM and are further diluted with 100% DMSO to 1 mM. All additional compound dilutions were obtained with assay buffer, final 1% DMSO. Compounds, membrane-bead-suspension and [^125I]MCP-1 (ca. 25000 cpm/10 μl) were incubated. Bound radioactivity was determined by scintillation counter after 8 h. Determination of affinity of test compounds (dissociation constant hKi) is calculated by iterative fitting of experimental data using the “easy sys” program, which is based on law of mass action (Schittkowski K. (1994), Numerische Mathematik, Vol. 68, 129-142).

human CCR5 = target: T2, human CCR5 (Homo sapiens, UniProt P51681); assay: CCR5 receptor membrane binding assay ([125I]RANTES, CHO (Gα16) human CCR5 cell membranes, SPA beads); conditions: bound radioactivity after 6 h, read-out: hKi [nM] (CCR5)
T2 construct: expressed in transfected cells; host or cells: CHO cells co-expressing Gα16, under puromycin and zeocin selection; membrane preparation
Experimental: The above exemplary substances have been tested for binding to CCR5 using a binding assay as outlined herein below:
CHO, (Gα16) human CCR5 cells were cultured under standardized conditions at 37° C. and 5% CO2 in a humidified incubator. CHO (Gα16) human CCR5 cells were cultivated in Ham's F12 (Invitrogen; #31765068) supplemented with 10 μg/ml Puromycin (Invitrogen; #A11139-03), 200 μg/ml Zeocin (Invitrogen; #45-0003) and 10% FCS (Gibco; #10500-064).
Membranes were prepared from CHO (Gα16) human CCR5 cells. Cells were cultured on […] plates (Nunc; #166508) 2-3 days before membrane preparation (usually 80-100 plates to obtain 80 mg protein).
Cells were scraped off the plates with a big scraper and washed with 2×5 ml ice cold Phosphate Buffer Saline (PBS; Invitrogen; #14040-174). Cell suspension was collected in a glass bottle (on ice). Cell suspension was harvested at 1400 rpm and 4° C. for 10 min and washed in PBS. Cell pellet was resuspended in 40 ml PBS with protease inhibitor mix ‘complete’ (Roche; #11873580001; 1 tablet/50 ml).
For gentle cell disruption the membrane preparation was performed by using a homogenizer (potter). Cells were homogenized for 5-10 min.
Membranes were centrifuged at 1000 rpm and 4° C. for 5 min Supernatant (=membrane) was harvested in a new falcon tube and remaining cell pellet homogenized again for 5-10 min with PBS with protease inhibitor mix and centrifuged. Collected supernatant was centrifuged at 40000 rpm and 4° C. for 30 min to sediment the cell membranes.
The membranes were resuspended in 25 mM HEPES, 25 mM MgCl2, 1 mM CaCl2, 10% Glycerine for storage in aliquots at −80° C. Membranes were diluted to a concentration of 5 mg/ml (Bradford Assay).
as §1
[^125I]RANTES, Stock: 1825 Ci/mmol, 25 μCi (Bio Trend #A3-AI-676) was solved in 1000 μl assay buffer (100 mM NaCl; 10 mM MgCl2; 50 mM Tris-HCl; 1 mM EDTA; 0.1% BSA, pH 7.6), stored at −20° C.
CHO (Gα16) human CCR5 membrane were solved on ice and adjusted with assay buffer to a concentration of 2.5 μg/15 μl.
Amersham Biosciences PVT-WGA Beads (GE Healthcare; #RPNQ0001) were adjusted with assay buffer to a concentration of 8 mg/ml. For preparation of the membrane-bead-suspension, membranes and beads were incubated for 30 min at RT under rotation with a ratio of 1:2.
Test compounds dissolved in 100% DMSO to a concentration of 10 mM and are further diluted with 100% DMSO to 1 mM. All additional compound dilutions were obtained with assay buffer, final 1% DMSO. 7 μl compound dilution, 45 μl membrane-bead-suspension and 10 μl [^125I]RANTES (ca. 20000 cpm/10 μl) were incubated at RT. Bound radioactivity was determined by scintillation counter after 6 h. Determination of affinity of test compounds (dissociation constant Ki) is calculated by iterative fitting of experimental data using the “easy sys” program, which is based on law of mass action (Schittkowski K. (1994), Numerische Mathematik, Vol. 68, 129-142).

T2 sequence (P51681 whole entry): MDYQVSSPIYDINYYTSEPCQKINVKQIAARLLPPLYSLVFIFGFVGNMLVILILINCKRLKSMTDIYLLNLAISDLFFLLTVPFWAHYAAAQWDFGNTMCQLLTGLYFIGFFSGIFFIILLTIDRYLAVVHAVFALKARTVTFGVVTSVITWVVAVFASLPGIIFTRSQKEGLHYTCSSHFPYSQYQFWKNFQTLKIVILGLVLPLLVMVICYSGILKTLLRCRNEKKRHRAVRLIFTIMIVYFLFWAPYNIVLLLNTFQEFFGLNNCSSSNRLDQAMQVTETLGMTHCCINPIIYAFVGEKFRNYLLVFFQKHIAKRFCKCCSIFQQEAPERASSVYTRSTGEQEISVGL

Compound	Ki (CCR2) [nM]	Ki (human CCR5) [nM]
Cc1c(C(=O)N2CCC(NC3CCOCC3)CC2)nc(C(F)(F)F)nc1N1CCc2ccc(C(F)(F)F)cc2C1 [Example 33]	7	–
CO[C@H]1COCC[C@H]1NC1CCN(C(=O)c2cc(NC[C@H]3CCC[C@@H](c4ccc(C)cc4)O3)nc(CF)n2)CC1 [Example 32]	5	–
Cc1c(C(=O)N2CCC(N[C@H]3CCOC[C@@H]3F)CC2)nc(CF)nc1N1CCc2ccc(C(F)(F)F)cc2C1 (relative stereo) [Example 46]	34	3680
CO[C@H]1COCC[C@H]1NC1CCN(C(=O)c2nc(C(F)F)nc(N3CCc4ccc(C(F)(F)F)cc4C3)c2C)CC1 [Example 34]	4	190
Cc1c(C(=O)N2CCC(N[C@H]3CCOC[C@H]3F)CC2)nc(CF)nc1N1CCc2ccc(C(F)(F)F)cc2C1 (relative stereo) [Example 45]	17	3450
Cc1c(C(=O)N2CCC(N[C@@H]3CCOC[C@@H]3F)CC2)nc(C2CCOCC2)nc1N1CCc2cc(C(F)(F)F)ccc2C1 [Example 8]	11	5870
CO[C@@H]1COCC[C@@H]1NC1CCN(C(=O)c2nc(-c3cc(C)on3)nc(N3CCc4ccc(C(F)(F)F)cc4C3)c2C)CC1 [Example 29]	2	53
CC(=O)N1CCC(c2nc(Nc3ccc(Cl)c(Cl)c3)c(C)c(C(=O)N3CCC(N[C@@H]4CCOC[C@@H]4F)CC3)n2)CC1 [Example 42]	17	–
CO[C@@H]1COCC[C@@H]1NC1CCN(C(=O)c2nc(CF)nc(N3CCc4ccc(C(F)(F)F)cc4C3)c2C)CC1 [Example 17]	2	180
Cc1c(Nc2ccc(Cl)c(Cl)c2)nc(CF)nc1C(=O)N1CCC(N[C@@H]2CCOC[C@@H]2F)CC1 [Example 37]	8	1370
CO[C@@H]1COCC[C@@H]1NC1CCN(C(=O)c2nc(C(F)(F)F)nc(N3CCc4ccc(C(F)(F)F)cc4C3)c2C)CC1 [Example 2]	2	150
CO[C@H]1COCC[C@H]1NC1CCN(C(=O)c2nc(-c3cc(C)on3)nc(N3CCc4cc(C(F)(F)F)ccc4C3)c2C)CC1 [Example 10]	15	850
CO[C@@H]1COCC[C@@H]1NC1CCN(C(=O)c2nc(C3CCOCC3)nc(N3CCc4ccc(C(F)(F)F)cc4C3)c2C)CC1 [Example 12]	0.6	46
Cc1c(NC[C@H]2CCC[C@@H](c3ccc(C(F)(F)F)cc3)O2)nc(C2CCOCC2)nc1C(=O)N1CCC(N[C@@H]2CCOC[C@@H]2F)CC1 [Example 15]	3	270
CO[C@H]1COCC[C@H]1NC1CCN(C(=O)c2nc(CF)nc(Nc3ccc(Cl)c(Cl)c3)c2C)CC1 [Example 21]	2	75
CC(=O)N1CCC(c2nc(Nc3ccc(Cl)c(Cl)c3)c(C)c(C(=O)N3CCC(N[C@H]4CCOC[C@H]4F)CC3)n2)CC1 [Example 43]	19	–
CSc1ccc([C@@H]2CCC[C@H](CNc3cc(C(=O)N4CCC(NC5CCOCC5F)CC4)nc(CF)n3)O2)cc1 (some centres unmarked) [Example 40]	7	230
CO[C@H]1COCC[C@H]1NC1CCN(C(=O)c2nc(-c3cc(C)on3)nc(NC[C@H]3CCC[C@@H](c4ccc(C(F)(F)F)cc4)O3)c2C)CC1 [Example 25]	1	–
CO[C@H]1COCC[C@H]1NC1CCN(C(=O)c2cc(NC[C@H]3CCC[C@@H](c4ccc(SC)cc4)O3)nc(CF)n2)CC1 [Example 41]	2	–
CO[C@@H]1COCC[C@@H]1NC1CCN(C(=O)c2cc(NC[C@H]3CCC[C@@H](c4ccc(SC)cc4)O3)nc(CF)n2)CC1 [Example 39]	4	–
CO[C@H]1COCC[C@H]1NC1CCN(C(=O)c2nc(-c3cc(C)on3)nc(N3CCc4ccc(C(F)(F)F)cc4C3)c2C)CC1 [Example 26]	5	130
CO[C@H]1COCC[C@H]1NC1CCN(C(=O)c2nc(C(F)(F)F)nc(N3CCc4ccc(C(F)(F)F)cc4C3)c2C)CC1 [Example 1]	3	265
Cc1cc(-c2nc(NC[C@H]3CCC[C@@H](c4ccc(C(F)(F)F)cc4)O3)c(C)c(C(=O)N3CCC(N[C@H]4CCOC[C@H]4F)CC3)n2)no1 [Example 23]	1	–
Cc1c(Nc2ccc(Cl)c(Cl)c2)nc(CF)nc1C(=O)N1CCC(N2CCC(N(C)S(C)(=O)=O)CC2)CC1 [Example 36]	2	–
CO[C@@H]1COCC[C@@H]1NC1CCN(C(=O)c2nc(-c3cc(C)on3)nc(NC[C@H]3CCC[C@@H](c4ccc(C(F)(F)F)cc4)O3)c2C)CC1 [Example 22]	0.7	–
CO[C@@H]1COCC[C@@H]1NC1CCN(C(=O)c2nc(C3CCN(C(C)=O)CC3)nc(Nc3ccc(Cl)c(Cl)c3)c2C)CC1 [Example 44]	4	–
CO[C@@H]1COCC[C@@H]1NC1CCN(C(=O)c2cc(NC[C@H]3CCC[C@@H](c4ccc(C)cc4)O3)nc(CF)n2)CC1 [Example 30]	3	–
Cc1c(Nc2ccc(Cl)c(Cl)c2)nc(CF)nc1C(=O)N1CCC(N2CCOCC2)CC1 [Example 38]	37	–
Cc1ccc([C@@H]2CCC[C@H](CNc3cc(C(=O)N4CCC(NC5CCOCC5F)CC4)nc(CF)n3)O2)cc1 (some centres unmarked) [Example 31]	15	–
